Data from patent publication US20230202989A1, “COMPOUNDS” (JANSSEN PHARMACEUTICA NV, priority 2020, published 2023).
pEC50, pIC50: −log10 of the molar value. Like-named read-outs stand apart in the source and are kept apart here.

Legend:
[1] = system: IL-1β; test: PBMC assay: inhibition of IL-1β release after LPS stimulation (MSD); assay type: cell-based; settings: human PBMCs, read-out: IL1β IC50
Protocol: Peripheral venous blood s collected from health individuals and human peripheral blood mononuclear cells (PBMCs) ere isolated from blood by Ficoll Histopaque (Sigma-Aldrich, A0561) density gradient centrifugation. After isolation, PBMCs were stored in liquid nitrogen for later use. Upon thawing, PBMC cell viability was determined in growth medium (RPMI media supplemented with 10% fetal bovine serum, 1% Pen-Strep and 1% L-glutamine). […] PBMCs were added at a density of 7.5×10^4 cells per well and incubated for 30 min in a 5% CO2 incubator at 37° C. LPS stimulation was performed by addition of 100 ng/ml LPS (final concentration, Invivogen, tlrl-smlps) for 6 hrs followed by collection of cellular supernatant and the analysis of IL-1β (μM) and TNF cytokines levels (μM) via MSD technology according to manufacturers' guidelines (MSD, K151A0H).
(§1) The IC50 values (for IL-1β) and EC50 values (TNF) were obtained on compounds of the invention/examples, and are depicted in the following table: […]

[2] = system: TNF; test: PBMC assay: TNF cytokine levels after LPS stimulation (MSD); assay type: cell-based; settings: human PBMCs, 100 ng/ml LPS for 6 hrs
Protocol: Peripheral venous blood s collected from health individuals and human peripheral blood mononuclear cells (PBMCs) ere isolated from blood by Ficoll Histopaque (Sigma-Aldrich, A0561) density gradient centrifugation. After isolation, PBMCs were stored in liquid nitrogen for later use. Upon thawing, PBMC cell viability was determined in growth medium (RPMI media supplemented with 10% fetal bovine serum, 1% Pen-Strep and 1% L-glutamine). Compounds were spotted in a 1:3 serial dilution in DMSO and diluted to the final concentration in 30 μl medium in 96 well plates (Falcon, 353072). PBMCs were added at a density of 7.5×10^4 cells per well and incubated for 30 min in a 5% CO2 incubator at 37° C. LPS stimulation was performed by addition of 100 ng/ml LPS (final concentration, Invivogen, tlrl-smlps) for 6 hrs followed by collection of cellular supernatant and the analysis of IL-1β (μM) and TNF cytokines levels (μM) via MSD technology according to manufacturers' guidelines (MSD, K151A0H).
as §1

[3] = Homo sapiens, PBMC, 6 h, 100 ng/ml LPS for 6 hrs, MSD, 96 well plates
[4] = Homo sapiens, PBMC, LPS stimulation, 384 well plate

Compound	pIC50 ([1]; 100 ng/ml LPS for 6 hrs, MSD, 96 well plates)	pEC50 [2]	pIC50 [1, 3]	pEC50 ([2]; Homo sapiens, PBMC, 6 h)	pIC50 [1, 4]
CC(C)c1nn(CC(=O)N[C@@H]2C[C@H](O)CN(C)C2)c(=O)c2ccc(C(F)(F)F)cc12 (mixture of isomers) [Final Cpd X133]	5.47	< 4.70			
CC(C)c1nn(CC(=O)N[C@H]2COC[C@H](O)C2)c(=O)c2ccc(C(F)(F)F)cc12 (mixture of isomers) [Final Cpd X148]			5.20	< 4.70	
CC(C)c1nn(CC(=O)N[C@@H]2COC[C@H](O)C2)c(=O)c2ccc(C(F)(F)F)cc12 (mixture of isomers) [Final Cpd X157]			5.01	< 4.70	
CC[C@@H](C)c1nn(CC(=O)Nc2ccc3nncn3c2)c(=O)c2ccc(C(F)(F)F)cc12 (single isomer, unassigned) [Final Cpd X12]			6.95	< 4.70	
Cc1nnc2n1C[C@@H](NC(=O)Cn1nc(C(C)C)c3cc(C(F)(F)F)ccc3c1=O)CC2 (single isomer, unassigned) [Final Cpd X41]			6.45	< 4.70	
CC[C@H](C)c1nn(CC(=O)Nc2ccc3nncn3c2)c(=O)c2ccc(C(F)(F)F)cc12 (single isomer, unassigned) [Final Cpd X43]			6.43	< 4.70	
CC(C)c1nn(CC(=O)N[C@H]2CC[C@H]2O)c(=O)c2ccc(C(F)(F)F)cc12 (single isomer, unassigned) [Final Cpd X124]			5.56	< 4.70	
CCN1CCC[C@H](NC(=O)Cn2nc(C(C)C)c3cc(C(F)(F)F)ccc3c2=O)C1=O (single isomer, unassigned) [Final Cpd X129]			5.51	< 4.70	
CC(C)c1nn(CC(=O)N[C@@H]2C[C@H](O)CN(C)C2)c(=O)c2ccc(C(F)(F)F)cc12 (single isomer, unassigned) [Final Cpd X130]			5.51	< 4.70	
CC(=O)N1C[C@H](O)C[C@@H](NC(=O)Cn2nc(C(C)C)c3cc(C(F)(F)F)ccc3c2=O)C1 (single isomer, unassigned) [Final Cpd X138]			5.40	< 4.70	
CCN1CC[C@@H](NC(=O)Cn2nc(C(C)C)c3cc(C(F)(F)F)ccc3c2=O)[C@@H](O)C1 (single isomer, unassigned) [Final Cpd X139]			5.37	< 4.70	
CCN1CC[C@@H](NC(=O)Cn2nc(C(C)C)c3cc(C(F)(F)F)ccc3c2=O)[C@H](O)C1 (single isomer, unassigned) [Final Cpd X140]			5.34	< 4.70	
CCN1CC[C@H](NC(=O)Cn2nc(C(C)C)c3cc(C(F)(F)F)ccc3c2=O)[C@H](O)C1 (single isomer, unassigned) [Final Cpd X147]			5.23	< 4.70	
CC(C)c1nn(CC(=O)N[C@@H]2CC[C@H]2O)c(=O)c2ccc(C(F)(F)F)cc12 (single isomer, unassigned) [Final Cpd X149]			5.19	< 4.70	
CC(=O)N1C[C@H](O)C[C@H](NC(=O)Cn2nc(C(C)C)c3cc(C(F)(F)F)ccc3c2=O)C1 (single isomer, unassigned) [Final Cpd X150]			5.13	< 4.70	
CCN1C[C@@H](F)C[C@H](NC(=O)Cn2nc(C(C)C)c3cc(C(F)(F)F)ccc3c2=O)C1 (single isomer, unassigned) [Final Cpd X153]			5.12	< 4.70	
CC(=O)N1C[C@@H](O)C[C@H](NC(=O)Cn2nc(C(C)C)c3cc(C(F)(F)F)ccc3c2=O)C1 (single isomer, unassigned) [Final Cpd X159]			4.99	< 4.70	
Cc1nnc2n1C[C@H](NC(=O)Cn1nc(C(C)C)c3cc(C(F)(F)F)ccc3c1=O)CC2 (single isomer, unassigned) [Final Cpd X163]			4.82	< 4.70	
CC(=O)N1C[C@@H](O)C[C@@H](NC(=O)Cn2nc(C(C)C)c3cc(C(F)(F)F)ccc3c2=O)C1 (single isomer, unassigned) [Final Cpd X164]			4.81	< 4.70	
CCN1CCC[C@@H](NC(=O)Cn2nc(C(C)C)c3cc(C(F)(F)F)ccc3c2=O)C1=O (single isomer, unassigned) [Final Cpd X166]			4.76	< 4.70	
CCN1CC[C@H](NC(=O)Cn2nc(C(C)C)c3cc(C(F)(F)F)ccc3c2=O)[C@@H](O)C1 (single isomer, unassigned) [Final Cpd X172]			< 4.70	< 4.70	
CCN1CCC[C@H](NC(=O)Cn2nc(C(C)C)c3cc(Br)ccc3c2=O)C1 (stereo in doubt) [X-1032]			7.51	< 4.70	
CCN1CC[C@H](O)[C@H](NC(=O)Cn2nc(C(C)C)c3cc(Br)ccc3c2=O)C1 (stereo in doubt) [X-1083]			7.74	< 4.70	
CCc1nn(CC(=O)Nc2ccc3nncn3c2)c(=O)c2ccc(Br)cc12 [Final Cpd 1]			6.94	< 4.70	

Compound	pIC50 ([1]; 100 ng/ml LPS for 6 hrs, MSD, 96 well plates)	pEC50 [2]	pIC50 [1, 3]	pEC50 ([2]; Homo sapiens, PBMC, 6 h)	pIC50 [1, 4]
CCc1nn(CC(=O)Nc2ccncn2)c(=O)c2ccc(Br)cc12 [Final Cpd 2, 2-(6-bromo-4-ethyl-1-oxo-phthalazin-2-yl)-N-pyrimidin-4-yl-acetamide]			6.72	< 5.00	
CCc1nn(CC(=O)Nc2ccc3nncn3c2)c(=O)c2ccc(C3CC3)cc12 [Final Cpd 3]			6.91	4.83	
CCc1nn(CC(=O)Nc2ccncn2)c(=O)c2ccc(C)cc12 [Final Cpd 4]			5.54	< 5.00	
CCc1nn(CC(=O)Nc2ccncn2)c(=O)c2ccc(C3CC3)cc12 [Final Cpd 5]			6.38	< 5.00	
CCc1nn(CC(=O)Nc2ccncn2)c(=O)c2ccc(C(C)C)cc12 [Final Cpd 6]			6.35	< 5.00	
CCc1ccc2c(=O)n(CC(=O)Nc3ccncn3)nc(CC)c2c1 [Final Cpd 7]				< 5.00	6.15
CC(C)c1nn(CC(=O)Nc2ccc3nncn3c2)c(=O)c2ccc(C(F)(F)F)cc12 [Final Cpd 8]			7.12	4.86	
CCc1nn(CC(=O)Nc2ccncn2)c(=O)c2ccc(C(F)(F)F)cc12 [Final Cpd 9]			6.24	< 5.00	
COc1ccc2c(=O)n(CC(=O)Nc3ccncn3)nc(C(C)C)c2c1 [Final Cpd 10, 2-(4-isopropyl-6-methoxy-1-oxo-phthalazin-2-yl)-N-pyrimidin-4-yl-acetamide]			5.63	< 5.00	
CCc1nn(CC(=O)Nc2ccncn2)c(=O)c2ccc(OC)cc12 [Final Cpd 11]			5.91	< 5.00	
CCc1nn(CC(=O)Nc2ccncn2)c(=O)c2ccccc12 [Final Cpd 12]			< 4.70	< 4.70	
CCc1nn(CC(=O)Nc2cccnc2)c(=O)c2ccccc12 [Final Cpd 13]			< 4.70	< 4.70	
CCc1nn(CC(=O)NC2CC2)c(=O)c2ccccc12 [Final Cpd 14]			< 4.70	< 4.70	
CC(C)c1nn(CC(=O)Nc2ccncn2)c(=O)c2ccc(C(F)(F)F)cc12 [Final Cpd 15]			6.75	< 4.70	
CCc1nn(CC(=O)Nc2ccncn2)c(=O)c2ccc(C(F)F)cc12 [Final Cpd 16]				< 5.00	6.04
CCc1nn(CC(=O)N[C@H]2C[C@@](C)(O)C2)c(=O)c2ccc(C(F)F)cc12 [Final Cpd 17]			6.27	< 5.00	
CCc1nn(CC(=O)N[C@H]2C[C@@](C)(O)C2)c(=O)c2ccc(Br)cc12 [Final Cpd 18]			7.52	< 5.00	
CCc1nn(CC(=O)N[C@H]2C[C@@](C)(O)C2)c(=O)c2ccc(C(F)(F)F)cc12 [Final Cpd 19]			6.85	< 5.00	
CCc1nn(CC(=O)N[C@H]2C[C@@](C)(O)C2)c(=O)c2ccc(C(C)C)cc12 [Final Cpd 20]			6.62	< 5.00	
CCc1nn(CC(=O)N[C@H]2C[C@@](C)(O)C2)c(=O)c2ccc(C3CC3)cc12 [Final Cpd 21]			6.54	< 5.00	
CCc1ccc2c(=O)n(CC(=O)N[C@H]3C[C@@](C)(O)C3)nc(CC)c2c1 [Final Cpd 22]			6.47	< 5.00	
CC(C)c1nn(CC(=O)Nc2ccncn2)c(=O)c2ccc(C3CC3)cc12 [Final Cpd 23]			6.54	4.92	
CC(C)c1nn(CC(=O)Nc2ncc3nc[nH]c3n2)c(=O)c2ccc(C(F)(F)F)cc12 [Final Cpd X1, 2-(4-isopropyl-1-oxo-6-(trifluoromethyl)phthalazin-2(1H)-yl)-N-(9H-purin-2-yl)acetamide]				< 4.70	
